Reference: patent EP4596570A1, “SRC INHIBITORS AND USES THEREOF” (Universitat de Barcelona, priority 2024, dated 2025)
Entries after “also recorded” stand apart in the source; their conditions may differ.

Experiments:
Assay type in all cases: cell-based, human
[1] = test system: SW620-src colorectal cancer cells; experiment: Wound healing assay (scratch, cell migration); conditions: Src transformed SW620 cells, 24h after scratch; Fig. 12
Experimental: SW620-src colorectal cancer cells were a kind gift of Dr. Serge Roche group. These cells have been stably transfected with human Src as described in Aponte, E., et al. (2021). "Regulation of Src tumor activity by its N-terminal intrinsically disordered region." Oncogene, 41: 960-970.. SW620-src colorectal cancer cells were grown in DMEM supplemented with 10% FBS (Gibco 10500-064), 1% GlutaMAX (Gibco 35050038) 1% P/S (Corning 30-002-CI). Cell lines were grown at 37°C with an atmosphere of 95% air, 5% CO2. All the reagents used during cell culture procedures were heated to 37°C in a water bath before its use. […]
Cells were plated into 24-well plate at density of 500,000 cells/well and were cultured until they reach a 100% confluence. […] Each well was photographed in the same site to quantify cell migration after 24 hours. […] The obtained images were analyzed by Imaged software (Schindelin, J., et al. (2012). "Fiji: an open-source platform for biological-image analysis." Nature Methods 9(7): 676-682) using the MRI wound healing tool plugin (Suarez-Arnedo, A., et al. (2020). "An image J plugin for the high throughput image analysis of in vitro scratch wound healing assays." PLOS ONE 15(7): e0232565) . […]

[2] = test system: SW620-src colorectal cancer cells; experiment: Cell viability assay (MTT); conditions: 72h, varying concentrations, much higher than those used in biological activity assays, Fig. 13
Experimental: (§1) SW620-src colorectal cancer cells were a kind gift of Dr. Serge Roche group. These cells have been stably transfected with human Src as described in Aponte, E., et al. (2021). "Regulation of Src tumor activity by its N-terminal intrinsically disordered region." Oncogene, 41: 960-970.. SW620-src colorectal cancer cells were grown in DMEM supplemented with 10% FBS (Gibco 10500-064), 1% GlutaMAX (Gibco 35050038) 1% P/S (Corning 30-002-CI). Cell lines were grown at 37°C with an atmosphere of 95% air, 5% CO2. All the reagents used during cell culture procedures were heated to 37°C in a water bath before its use. Before each assay, the absence of mycoplasma was tested according to a previously described protocol (Molla Kazemiha, V., et al. (2009). "PCR-based detection and eradication of mycoplasmal infections from various mammalian cell lines: a local experience." Cytotechnology 61(3): 117-124).
Cell viability was measured by MTT assay as described before (Kamiloglu, S., et al. (2020). "Guidelines for cell viability assays." Food Frontiers 1(3): 332-349).. […]
SW620-src cells were seeded into 96-well plates containing 100 µL of the growth medium at a density of 10000 cells/well for and cultured for one day. […] Afterwards, the plates were read under 570/690 nm wavelengths by plate reader (Synergy HTX, Biotek).

[3] = test system: SW620-src colorectal cancer cells; experiment: Soft agar colony formation assay; conditions: Src transformed SW620 colorectal cancer cells, 5 µM of Drugs, 3 weeks, colonies with >50 cells counted; Fig. 11
Experimental: as §1
Cells were plated at density of 10,000 per well in 24-well plates in 0.3% soft agar on top of a base layer of 0.7% agar. The cells were treated with 5 µM of Drugs, and the plates were incubated for 3 weeks, replacing the media every week. […] These experiments were repeated twice with 4 replicates per group, and only colonies with >50 cells were counted.

Row | Molecule | migration of cancer cells (scratch wound healing) [1] | cell viability [2] | colony formation [3]
1 | COC(=O)NC(C(=O)N1CCC[C@H]1c1cn(-c2ccc(-c3ccc(-n4cc([C@@H]5CCCN5C(=O)C(NC(=O)OC)C(C)C)nn4)cc3)cc2)nn1)C(C)C (stereo partly drawn) [V-Me, Moc-Val-1-Val-Moc] | significantly reduced; also recorded: significantly impair | do not significantly affect cell viability | significantly reduced; also recorded: significantly decrease
2 | COC(=O)N[C@@H](CO)C(=O)N[C@@H](CC(C)C)C(=O)N[C@@H](CCC(=O)O)C(=O)N1CCC[C@H]1c1cn(-c2ccc(-c3ccc(-n4cc([C@@H]5CCCN5C(=O)[C@H](CCC(=O)O)NC(=O)[C@H](CC(C)C)NC(=O)[C@H](CO)NC(=O)OC)nn4)cc3)cc2)nn1 [SLE-Me, Moc-Ser-Leu-Glu-1-Glu-Leu-Ser-Moc] | – | do not significantly affect cell viability | –
3 | Moc-Leu-Lys-1-Lys-Leu-Moc [LK-Me] | does not show significant biological activity; also recorded: no effect | – | does not show significant biological activity; also recorded: no effect
